Reference: PubChem BioAssay (NCI)
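Step 1: Grow cells in 96-well plates. Step 2: Expose to compound for 48 hours at 5 concentrations. Step 3: Interpolate endpoints linearly; if unreached, use highest concentration. Here, GI50 denotes the concentration required for 50% inhibition of growth. At the TGI there is no net growth.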

How the values were obtained:
Test in all cases: NCI anticancer screen, dose series, 48 h
SN12C renal = system: SN12C renal
HCT-116 colon = system: HCT-116 colon
EKVX NSCLC = system: EKVX NSCLC
OVCAR-5 ovarian = system: OVCAR-5 ovarian
SK-MEL-2 melanoma = system: SK-MEL-2 melanoma
MCF7 breast = system: MCF7 breast
UACC-62 melanoma = system: UACC-62 melanoma
A498 renal = system: A498 renal
SK-OV-3 ovarian = system: SK-OV-3 ovarian
SR leukemia = system: SR leukemia
HOP-62 NSCLC = system: HOP-62 NSCLC
HS 578T breast = system: HS 578T breast
NCI-H522 lung = system: NCI-H522 lung
MDA-MB-435 = system: MDA-MB-435
CCRF-CEM leukemia = system: CCRF-CEM leukemia
NCI-H23 lung = system: NCI-H23 lung
SF-539 CNS = system: SF-539 CNS
MOLT-4 leukemia = system: MOLT-4 leukemia
OVCAR-3 ovarian = system: OVCAR-3 ovarian
KM12 colon = system: KM12 colon
IGROV1 ovarian = system: IGROV1 ovarian
786-0 renal = system: 786-0 renal
CAKI-1 renal = system: CAKI-1 renal
HCC-2998 colon = system: HCC-2998 colon
HL-60(TB) leukemia = system: HL-60(TB) leukemia
BT-549 breast = system: BT-549 breast
M14 melanoma = system: M14 melanoma
MDA-MB-231 breast = system: MDA-MB-231 breast
SNB-75 CNS = system: SNB-75 CNS
SW-620 colon = system: SW-620 colon
SF-295 CNS = system: SF-295 CNS
SNB-19 CNS = system: SNB-19 CNS
NCI/ADR-RES ovarian = system: NCI/ADR-RES ovarian
SK-MEL-5 melanoma = system: SK-MEL-5 melanoma
HT29 colon = system: HT29 colon
NCI-H226 lung = system: NCI-H226 lung
TK-10 renal = system: TK-10 renal
COLO 205 colon = system: COLO 205 colon
K-562 leukemia = system: K-562 leukemia
UO-31 renal = system: UO-31 renal
SK-MEL-28 melanoma = system: SK-MEL-28 melanoma
RPMI-8226 leukemia = system: RPMI-8226 leukemia
UACC-257 melanoma = system: UACC-257 melanoma
PC-3 prostate = system: PC-3 prostate
OVCAR-4 ovarian = system: OVCAR-4 ovarian
DU-145 prostate = system: DU-145 prostate
SF-268 CNS = system: SF-268 CNS
NCI-H460 lung = system: NCI-H460 lung
T-47D breast = system: T-47D breast

**Q.** How did the GI50 (SN12C renal) turn out when COc1cc2c(c(OC)c1OC)C(=O)c1c-2n(CCCN)c(=O)c2cc([N+](=O)[O-])ccc12 was run?
**A.** The GI50 was 5.11 µM.

**Q.** What about the TGI (SN12C renal) of the same molecule?
**A.** Its TGI is 13.6 µM.

**Q.** What about the GI50 (HCT-116 colon) of the same molecule?
**A.** Its GI50 is 0.128 µM.

**Q.** What about the TGI (HCT-116 colon) of the same molecule?
**A.** The TGI was 0.274 µM.

**Q.** What about the GI50 (EKVX NSCLC) of the same molecule?
**A.** Its GI50 is 3.02 µM.

**Q.** What about the TGI (EKVX NSCLC) of the same molecule?
**A.** The TGI was 8.32 µM.

**Q.** And the GI50 (OVCAR-5 ovarian)?
**A.** Its GI50 is 1.61 µM.

**Q.** What about the TGI (OVCAR-5 ovarian) of the same molecule?
**A.** Its TGI is 3.04 µM.

**Q.** What about the GI50 (SK-MEL-2 melanoma) of the same molecule?
**A.** The GI50 was 5.45 µM.

**Q.** And the TGI (SK-MEL-2 melanoma)?
**A.** The TGI was 11.6 µM.

**Q.** What about the GI50 (MCF7 breast) of the same molecule?
**A.** The GI50 was 0.25 µM.

**Q.** What about the GI50 (UACC-62 melanoma) of the same molecule?
**A.** Its GI50 is 9.16 µM.

**Q.** And the TGI (UACC-62 melanoma)?
**A.** The TGI was 24.2 µM.

**Q.** And the GI50 (A498 renal)?
**A.** The GI50 was 1.41 µM.

**Q.** And the TGI (A498 renal)?
**A.** Its TGI is 2.99 µM.

**Q.** And the GI50 (SK-OV-3 ovarian)?
**A.** Its GI50 is 1.95 µM.

**Q.** What about the TGI (SK-OV-3 ovarian) of the same molecule?
**A.** Its TGI is 4 µM.

**Q.** What about the GI50 (SR leukemia) of the same molecule?
**A.** The GI50 was 2.41 µM.

**Q.** And the TGI (SR leukemia)?
**A.** Its TGI is 5.44 µM.

**Q.** What about the GI50 (HOP-62 NSCLC) of the same molecule?
**A.** Its GI50 is 0.958 µM.

**Q.** What about the TGI (HOP-62 NSCLC) of the same molecule?
**A.** The TGI was 2.6 µM.

**Q.** And the GI50 (HS 578T breast)?
**A.** Its GI50 is 2 µM.

**Q.** And the TGI (HS 578T breast)?
**A.** The TGI was 4.99 µM.

**Q.** And the GI50 (NCI-H522 lung)?
**A.** The GI50 was 5.79 µM.

**Q.** What about the TGI (NCI-H522 lung) of the same molecule?
**A.** Its TGI is 14 µM.

**Q.** And the GI50 (MDA-MB-435)?
**A.** Its GI50 is 1.07 µM.

**Q.** What about the TGI (MDA-MB-435) of the same molecule?
**A.** Its TGI is 2.4 µM.

**Q.** What about the GI50 (CCRF-CEM leukemia) of the same molecule?
**A.** Its GI50 is 0.285 µM.

**Q.** What about the TGI (CCRF-CEM leukemia) of the same molecule?
**A.** Its TGI is 0.834 µM.

**Q.** What about the GI50 (NCI-H23 lung) of the same molecule?
**A.** Its GI50 is 1.52 µM.

**Q.** What about the TGI (NCI-H23 lung) of the same molecule?
**A.** Its TGI is 3.81 µM.

**Q.** And the GI50 (SF-539 CNS)?
**A.** Its GI50 is 0.55 µM.

**Q.** What about the TGI (SF-539 CNS) of the same molecule?
**A.** The TGI was 1.16 µM.

**Q.** What about the GI50 (MOLT-4 leukemia) of the same molecule?
**A.** Its GI50 is 8.08 µM.

**Q.** And the TGI (MOLT-4 leukemia)?
**A.** The TGI was 19.1 µM.

**Q.** And the GI50 (OVCAR-3 ovarian)?
**A.** Its GI50 is 1.06 µM.

**Q.** And the TGI (OVCAR-3 ovarian)?
**A.** The TGI was 2.4 µM.

**Q.** What about the GI50 (KM12 colon) of the same molecule?
**A.** Its GI50 is 0.161 µM.

**Q.** What about the TGI (KM12 colon) of the same molecule?
**A.** The TGI was 0.369 µM.

**Q.** And the GI50 (IGROV1 ovarian)?
**A.** Its GI50 is 1.43 µM.

**Q.** What about the TGI (IGROV1 ovarian) of the same molecule?
**A.** The TGI was 3.05 µM.

**Q.** What about the GI50 (786-0 renal) of the same molecule?
**A.** Its GI50 is 0.481 µM.

**Q.** What about the TGI (786-0 renal) of the same molecule?
**A.** The TGI was 1.04 µM.

**Q.** And the GI50 (CAKI-1 renal)?
**A.** Its GI50 is 0.535 µM.

**Q.** And the TGI (CAKI-1 renal)?
**A.** The TGI was 2.24 µM.

**Q.** What about the GI50 (HCC-2998 colon) of the same molecule?
**A.** Its GI50 is 0.299 µM.

**Q.** What about the TGI (HCC-2998 colon) of the same molecule?
**A.** Its TGI is 0.804 µM.

**Q.** What about the GI50 (HL-60(TB) leukemia) of the same molecule?
**A.** Its GI50 is 4.5 µM.

**Q.** What about the TGI (HL-60(TB) leukemia) of the same molecule?
**A.** Its TGI is 10.9 µM.

**Q.** What about the GI50 (BT-549 breast) of the same molecule?
**A.** Its GI50 is 1.76 µM.

**Q.** And the TGI (BT-549 breast)?
**A.** The TGI was 3.53 µM.

**Q.** And the GI50 (M14 melanoma)?
**A.** The GI50 was 1.35 µM.

**Q.** What about the TGI (M14 melanoma) of the same molecule?
**A.** Its TGI is 2.82 µM.

**Q.** And the GI50 (MDA-MB-231 breast)?
**A.** The GI50 was 1.8 µM.

**Q.** What about the TGI (MDA-MB-231 breast) of the same molecule?
**A.** Its TGI is 4 µM.

**Q.** And the GI50 (SNB-75 CNS)?
**A.** Its GI50 is 1.41 µM.

**Q.** What about the TGI (SNB-75 CNS) of the same molecule?
**A.** The TGI was 3.31 µM.

**Q.** What about the GI50 (SW-620 colon) of the same molecule?
**A.** Its GI50 is 0.31 µM.

**Q.** And the TGI (SW-620 colon)?
**A.** Its TGI is 3.3 µM.

**Q.** What about the GI50 (SF-295 CNS) of the same molecule?
**A.** Its GI50 is 1.64 µM.

**Q.** What about the TGI (SF-295 CNS) of the same molecule?
**A.** The TGI was 3.39 µM.

**Q.** And the GI50 (SNB-19 CNS)?
**A.** The GI50 was 1.5 µM.

**Q.** What about the TGI (SNB-19 CNS) of the same molecule?
**A.** Its TGI is 5.15 µM.

**Q.** And the GI50 (NCI/ADR-RES ovarian)?
**A.** The GI50 was 2.03 µM.

**Q.** What about the TGI (NCI/ADR-RES ovarian) of the same molecule?
**A.** The TGI was 9.98 µM.

**Q.** What about the GI50 (SK-MEL-5 melanoma) of the same molecule?
**A.** Its GI50 is 1.53 µM.

**Q.** And the TGI (SK-MEL-5 melanoma)?
**A.** Its TGI is 3.24 µM.

**Q.** And the GI50 (HT29 colon)?
**A.** The GI50 was 0.301 µM.

**Q.** And the GI50 (NCI-H226 lung)?
**A.** Its GI50 is 19 µM.

**Q.** What about the TGI (NCI-H226 lung) of the same molecule?
**A.** Its TGI is 40.1 µM.

**Q.** What about the GI50 (TK-10 renal) of the same molecule?
**A.** The GI50 was 0.616 µM.

**Q.** What about the TGI (TK-10 renal) of the same molecule?
**A.** Its TGI is 1.3 µM.

**Q.** What about the GI50 (COLO 205 colon) of the same molecule?
**A.** Its GI50 is 1.22 µM.

**Q.** And the TGI (COLO 205 colon)?
**A.** The TGI was 6.3 µM.

**Q.** And the GI50 (K-562 leukemia)?
**A.** Its GI50 is 2.86 µM.

**Q.** What about the TGI (K-562 leukemia) of the same molecule?
**A.** Its TGI is 7.98 µM.

**Q.** And the GI50 (UO-31 renal)?
**A.** The GI50 was 1.89 µM.

**Q.** What about the TGI (UO-31 renal) of the same molecule?
**A.** The TGI was 3.57 µM.

**Q.** And the GI50 (SK-MEL-28 melanoma)?
**A.** The GI50 was 1.76 µM.

**Q.** And the TGI (SK-MEL-28 melanoma)?
**A.** Its TGI is 3.97 µM.

**Q.** And the GI50 (RPMI-8226 leukemia)?
**A.** Its GI50 is 1.21 µM.

**Q.** What about the TGI (RPMI-8226 leukemia) of the same molecule?
**A.** The TGI was 3.32 µM.

**Q.** What about the GI50 (UACC-257 melanoma) of the same molecule?
**A.** Its GI50 is 5.18 µM.

**Q.** What about the TGI (UACC-257 melanoma) of the same molecule?
**A.** Its TGI is 12.2 µM.

**Q.** And the GI50 (PC-3 prostate)?
**A.** The GI50 was 0.736 µM.

**Q.** What about the TGI (PC-3 prostate) of the same molecule?
**A.** Its TGI is 3.43 µM.

**Q.** And the GI50 (OVCAR-4 ovarian)?
**A.** The GI50 was 0.372 µM.

**Q.** What about the TGI (OVCAR-4 ovarian) of the same molecule?
**A.** The TGI was 1.47 µM.

**Q.** What about the GI50 (DU-145 prostate) of the same molecule?
**A.** The GI50 was 0.962 µM.

**Q.** What about the TGI (DU-145 prostate) of the same molecule?
**A.** Its TGI is 2.31 µM.

**Q.** What about the GI50 (SF-268 CNS) of the same molecule?
**A.** Its GI50 is 0.364 µM.

**Q.** What about the TGI (SF-268 CNS) of the same molecule?
**A.** Its TGI is 1.95 µM.

**Q.** And the GI50 (NCI-H460 lung)?
**A.** Its GI50 is 0.562 µM.

**Q.** And the GI50 (T-47D breast)?
**A.** The GI50 was 2.48 µM.

**Q.** What about the TGI (T-47D breast) of the same molecule?
**A.** The TGI was 6.91 µM.
